Test results as given in patent publication US4426371A, “Novel N-hydroxyalkylated dicarboxylic acid bis(3,5-dicarbamoyl-2,4,6-triiodoanilides), as X-ray contrast media” (Schering, Aktiengesellschaft, priority 1980, dated 1984).

Legend:
[1] = Osmotic pressure of aqueous contrast media solution; format: physicochemical; details: 300 mg I/ml
Excerpt: (§1) It was surprising that, per this invention, a comparatively minor chemical modification of the class of compounds described in DOS No. 2,628,517 (U.S. Pat. No. 4,239,747) would lead to a significant improvement in compatibility and to an increase in solubility. This can be seen from Table I wherein the compound A of this invention (malonic acid bis[3,5-bis(1,3-dihydroxyisopropylcarbamoyl)-2,4,6-triiodo-N-2-hydroxyethylanilide]) is compared with respect to osmotic pressure, viscosity, and compatibility with oxalic acid bis[3,5-bis(2,3-dihydroxypropyl-N-methylcarbamoyl)-2,4,6-triiodo-anilide] (B), as well as with iopamidol (5-[α-hydroxypropionyl-amino]-2,4,6-triiodoisopthalic acid bis[1,3-dihydroxyisopropyl-amide]) and metrizamide [2-(3-acetamido-2,4,6-triiodo-5-[N-methylacetamido]benzamido)-2-deoxy-D-glucose)].
(§2) Osmotic Pressure, Viscosity, and Compatibility of Nonionic
(§3) Contrast Media of Different Chemical Structure as an Aqueous
(§4) Solution (Concentration: 300 mg I/ml)

[2] = Viscosity of aqueous contrast media solution; format: physicochemical; details: 300 mg I/ml
Excerpt: as §1, §2, §3, §4

Rat = assay: Compatibility: LD50 (Rat) upon i.v. injection; format: in vivo; details: rate 2 ml/min, aqueous solution 300 mg I/ml
Experimental: as §2, §3, §4
Pressure Viscosity (g Iodine/kg Body

[3] = for angiography and myelography; background; cited from earlier work

Row | SMILES | Osmotic Pressure 37° C. [1] | Viscosity 37° C. [2] | LD50 (Rat) upon i.v. Injection (Rat) | concentrated, radiopaque solutions not hypertonic to blood or other body fluid [3]
1 | O=C(NC(CO)CO)c1c(I)c(C(=O)NC(CO)CO)c(I)c(N(CCO)C(=O)CC(=O)N(CCO)c2c(I)c(C(=O)NC(CO)CO)c(I)c(C(=O)NC(CO)CO)c2I)c1I [A, malonic acid bis[3,5-bis(1,3-dihydroxyisopropylcarbamoyl)-2,4,6-triiodo-N-2-hydroxyethylanilide]] | 7.2 atm | 6.8 cp | more than 30 g Iodine/kg Body Weight | 
2 | CN(CC(O)CO)C(=O)c1c(I)c(NC(=O)C(=O)Nc2c(I)c(C(=O)N(C)CC(O)CO)c(I)c(C(=O)N(C)CC(O)CO)c2I)c(I)c(C(=O)N(C)CC(O)CO)c1I (centres unmarked) [B, oxalic acid bis[3,5-bis(2,3-dihydroxypropyl-N-methylcarbamoyl)-2,4,6-triiodo-anilide]] | 4.3 atm | 13.7 cp | 13 g Iodine/kg Body Weight | 
3 | C[C@H](O)C(=O)Nc1c(I)c(C(=O)NC(CO)CO)c(I)c(C(=O)NC(CO)CO)c1I [Iopamidol, 5-[α-hydroxypropionyl-amino]-2,4,6-triiodoisopthalic acid bis[1,3-dihydroxyisopropyl-amide]] | 15.7 atm | 4.7 cp | 12 g Iodine/kg Body Weight | it has not been possible to prepare solutions sufficiently concentrated and radiopaque
4 | CC(=O)Nc1c(I)c(C(=O)N[C@H]2C(O)O[C@H](CO)[C@@H](O)[C@@H]2O)c(I)c(N(C)C(C)=O)c1I (some centres unmarked) [Metrizamide] | 12.3 atm | 6.2 cp | 12 g Iodine/kg Body Weight | it has not been possible to prepare solutions sufficiently concentrated and radiopaque
